Assay results reported in patent US9156860B2, “Boron-containing small molecules” (Anacor Pharmaceuticals, Inc., priority 2011, dated 2015).

System: Lone star tick larvae (Amblyomma americanum)
Assay: Larval immersion microassay against larval-stage Lone star ticks
Conditions: Amblyomma americanum, 24 h, read-out: activity (percent larval mortality)
Experimental: The larval immersion microassay was conducted as described in detail in White, et al., J. Med. Entomol. […] Compounds of the invention were formulated in dimethylsulfoxide (DMSO) to prepare a stock solution at a concentration of at least 10 mM. […] Approximately 30-50 Lone star tick larvae (Amblyomma americanum) were submerged into each well containing compounds. After a 30 minute immersion period, larvae were removed with a wide-bore pipette tip in 0.05 ml of fluid, dispensed into a commercial paper tissue biopsy bag which was sealed at the top with a plastic dialysis clip, inverted and allowed to air dry for 60 minutes. Bags containing larvae were then incubated at approximately 27 degrees Celsius and >90% relative humidity. After 24 hours, bags were opened, live and dead larvae were counted and percent larval mortality was calculated.
7 contains one chiral center, and is therefore a racemic mixture comprised of approximately 50% R- and 50% S-enantiomer. In vitro and surrogate animal (rat) studies were conducted to evaluate the biological activity of the R- and S-enantiomers of 7. For the in vitro study, larvae of the Lone star tick (Amblyomma americanum) were exposed to 17 (S-enantiomer) and 18 (R-enantiomer) using the larval immersion microassay at a concentration of no greater than 0.3 mM. Following exposure, larvae were removed, transferred to a tissue biopsy bag and incubated at approximately 27 degrees Celsius and >90% relative humidity. After 24 hours, biopsy bags were opened and the numbers of live and dead larvae were determined.

Q: How did the mortality at 300 µM turn out when `CC1(C)OB(O)c2ccc(C3=NOC(c4cc(Cl)c(Cl)c(Cl)c4Cl)(C(F)(F)F)C3)cc21` (stereo not shown) [Compound 34, 3,3-Dimethyl-5-(5-(2,3,4,5-tetrachlorophenyl)-5-(trifluoromethyl)-4,5-dihydroisoxazol-3-yl)benzo[c][1,2]oxaborol-1(3H)-ol] was run?
A: ≥ 80%

Q: How did the mortality at 300 µM turn out when `CC1(C)OB(O)c2ccc(C3=NOC(c4cc(Cl)c(F)c(Cl)c4F)(C(F)(F)F)C3)cc21` (stereo not shown) [Compound 35] was run?
A: ≥ 80%

Q: With `CC1(C)OB(O)c2ccc(C3=NOC(c4cc(Cl)c(C(F)F)c(Cl)c4)(C(F)(F)F)C3)cc21` (stereo not shown) [Compound 11, 5-(5-(3,5-Dichloro-4-(difluoromethyl)phenyl)-5-(trifluoromethyl)-4,5-dihydroisoxazol-3-yl)-3,3-dimethyl-benzo[c][1,2]oxaborol-1(3H)-ol] as the molecule, how does the mortality at 300 µM read?
A: ≥ 80%

Q: `CC1(C)OB(O)c2ccc(C3=NOC(c4cc(Cl)cc(C(F)(F)F)c4)(C(F)(F)F)C3)cc21` (stereo not shown) [Compound 6] was tested. Which mortality at 300 µM did it give?
A: ≥ 80%

Q: How did the mortality at 300 µM turn out when `CC1(C)OB(O)c2ccc(C3=NOC(c4cc(Cl)cc(Cl)c4)(C(F)(F)F)C3)cc21` (stereo not shown) [Compound 2, 5-(5-(3,5-Dichlorophenyl)-5-(trifluoromethyl)-4,5-dihydroisoxazol-3-yl)-3,3-dimethyl-benzo[c][1,2]oxaborol-1(3H)-ol] was run?
A: ≥ 80%

Q: How did the mortality at 300 µM turn out when `CC1(C)OB(O)c2ccc(C3=NOC(c4cc(C(F)(F)F)cc(C(F)(F)F)c4)(C(F)(F)F)C3)cc21` (stereo not shown) [Compound 14, 5-(5-(3,5-Bis(trifluoromethyl)phenyl)-5-(trifluoromethyl)-4,5-dihydroisoxazol-3-yl)-3,3-dimethylbenzo[c][1,2]oxaborol-1(3H)-ol] was run?
A: ≥ 80%

Q: Which mortality at 300 µM does the source give for `CC1(C)OB(O)c2cc(F)c(C3=NOC(c4cc(Cl)cc(Cl)c4)(C(F)(F)F)C3)cc21` (stereo not shown) [Compound 41] here?
A: ≥ 80%

Same assay, conditions: Amblyomma americanum; concentration of no greater than 0.3 mM; 30 minute immersion; counted after 24 hours; read-out: activity (percent larval mortality)

Q: How did the mortality at 300 µM turn out when `CC1(C)OB(O)c2ccc(C3=NOC(c4cc(F)c(Cl)c(F)c4)(C(F)(F)F)C3)cc21` (stereo not shown) [Compound 30, 5-(5-(4-Chloro-3,5-difluorophenyl)-5-(trifluoromethyl)-4,5-dihydroisoxazol-3-yl)-3,3-dimethylbenzo[c][1,2]oxaborol-1(3H)-ol] was run?
A: ≥ 80%

Q: For `CC1(C)OB(O)c2ccc(C3=NOC(c4cc(F)c(F)c(Cl)c4)(C(F)(F)F)C3)cc21` (stereo not shown) [Compound 25, 5-(5-(3-Chloro-4,5-difluorophenyl)-5-(trifluoromethyl)-4,5-dihydroisoxazol-3-yl)-3,3-dimethylbenzo[c][1,2]oxaborol-1(3H)-ol], which mortality at 300 µM is on record?
A: ≥ 80%

Q: `CC1(C)OB(O)c2ccc(C3=NOC(c4cc(Br)c(F)c(Br)c4)(C(F)(F)F)C3)cc21` (stereo not shown) [Compound 32, 5-(5-(3,5-Dibromo-4-fluorophenyl)-5-(trifluoromethyl)-4,5-dihydroisoxazol-3-yl)-3,3-dimethylbenzo[c][1,2]oxaborol-1(3H)-ol] was tested. Which mortality at 300 µM did it give?
A: ≥ 80%

Q: Which mortality at 300 µM does the source give for `CC1(C)OB(O)c2ccc(C3=NOC(c4ccc(Cl)c(Cl)c4)(C(F)(F)F)C3)cc21` (stereo not shown) [Compound 23, 5-(5-(3,4-Dichlorophenyl)-5-(trifluoromethyl)-4,5-dihydroisoxazol-3-yl)-3,3-dimethyl-benzo[c][1,2]oxaborol-1(3H)-ol] here?
A: ≥ 80%

Q: With `CC1(C)OB(O)c2ccc(C3=NOC(c4cc(Br)c(Cl)c(Br)c4)(C(F)(F)F)C3)cc21` (stereo not shown) [Compound 27, 5-(5-(3,5-Dibromo-4-chlorophenyl)-5-(trifluoromethyl)-4,5-dihydroisoxazol-3-yl)-3,3-dimethylbenzo[c][1,2]oxaborol-1(3H)-ol] as the molecule, how does the mortality at 300 µM read?
A: ≥ 80%

Q: `CC1(C)OB(O)c2ccc(C3=NOC(c4ccc(F)c(C(F)(F)F)c4)(C(F)(F)F)C3)cc21` (stereo not shown) [Compound 24, 5-(5-(4-Fluoro-3-(trifluoromethyl)phenyl)-5-(trifluoromethyl)-4,5-dihydroisoxazol-3-yl)-3,3-dimethylbenzo[c][1,2]oxaborol-1(3H)-ol] was tested. Which mortality at 300 µM did it give?
A: ≥ 80%
